The text below walks through data of patent publication US20080221086A1, “Novel Inhibitors of Glutaminyl Cyclase” (PROBIODRUG AG, priority 2006, published 2008).

Sequence of hQC (Q16769 29-361): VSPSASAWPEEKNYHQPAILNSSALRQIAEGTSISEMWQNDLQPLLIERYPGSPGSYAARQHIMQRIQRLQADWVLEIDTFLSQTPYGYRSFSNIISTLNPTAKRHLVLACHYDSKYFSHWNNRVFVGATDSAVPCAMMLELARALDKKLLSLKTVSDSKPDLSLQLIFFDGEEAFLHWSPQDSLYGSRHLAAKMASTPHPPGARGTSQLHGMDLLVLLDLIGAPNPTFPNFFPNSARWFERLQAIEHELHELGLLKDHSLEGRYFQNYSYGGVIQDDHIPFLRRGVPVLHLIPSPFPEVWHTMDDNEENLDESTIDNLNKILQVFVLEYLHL

The first assay has as its target hQC (Homo sapiens, UniProt Q16769). Put plainly: Fluorometric assay of glutaminyl cyclase (QC) inhibition, H-Gln-βNA or H-Gln-AMC substrate. It counts as biochemical. The conditions noted are these: compound from preparative synthesis, purified by chromatography; fluorescent assay; read-out: IC50 hQC. Summed up: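 Ki values were obtained by fitting progress curves to a competitive-inhibition equation, and the rapid screen used 4 mM inhibitor with substrate at 1 KM. Both readouts coupled pyroglutamyl aminopeptidase at pH 8.0 and 30° C: H-Gln-βNA at 0.2 mM (ex/em 320/410 nm) or H-Gln-AMC (380/460 nm).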
With `O=C1N/C(=N/CCc2c[nH]c3ccccc23)C(c2ccccc2Cl)N1CCCn1ccnc1` (centres unmarked) [Compound 55, 5-(2-Chloro-phenyl)-1-(3-imidazol-1-yl-propyl)-4-2-(1H-indol-3-yl)-ethylimino-imidazolidin-2-one], the IC50 was found to be 0.482 µM.

The same assay, now with this note: read-out: IC50.
As to `O=C1N/C(=N/Cc2cccnc2)C(c2cc(F)cc(F)c2)N1c1ccc2[nH]cnc2c1` (centres unmarked) [Compound 227, 1-(1H-Benzoimidazol-5-yl)-5-(3,5-difluoro-phenyl)-4-pyridin-3-ylmethylimino-imidazolidin-2-one], the IC50 was 1.3 µM.

With `COc1cc(C/N=C2\NC(=O)N(CCCn3ccnc3)C2c2ccccc2Cl)cc(OC)c1OC` (centres unmarked) [Compound 26, 5-(2-Chloro-phenyl)-1-(3-imidazol-1-yl-propyl)-4-3,4,5-trimethoxy-benzylimino-imidazolidin-2-one], the half-inhibitory concentration (IC50) is 6.7 µM.

For `O=C1N/C(=N/CCc2c[nH]c3ccccc23)C(c2ccccc2Cl)N1CCCn1ccnc1` (centres unmarked) [Compound 55, 5-(2-Chloro-phenyl)-1-(3-imidazol-1-yl-propyl)-4-2-(1H-indol-3-yl)-ethylimino-imidazolidin-2-one], the half-maximal inhibitory concentration (IC50) was found to be 2.2 µM.

Consider `C/N=C1/NC(=O)N(CCCn2ccnc2)C1c1ccc(O)cc1` (centres unmarked) [Compound 17, 5-(4-Hydroxy-phenyl)-1-(3-imidazol-1-yl-propyl)-4-methylimino-imidazolidin-2-one], for which the IC50 stood at 5.8 µM.

In the case of `O=C1N/C(=N/CCc2cccs2)C(c2ccccc2)N1CCCn1ccnc1` (centres unmarked) [Compound 38, 1-(3-Imidazol-1-yl-propyl)-5-phenyl-4-2-thiophen-2-yl-ethylimino-imidazolidin-2-one], the concentration for half-maximal inhibition (IC50) stood at 7.6 µM.

Take `O=C1N/C(=N/Cn2nnc3ccccc32)C(c2ccc3[nH]ccc3c2)N1c1ccc2[nH]cnc2c1` (centres unmarked) [Compound 173, 1-(1H-Benzoimidazol-5-yl)-4-benzotriazol-1-ylmethylimino-5-(1H-indol-5-yl)-imidazolidin-2-one]: the IC50 came to 0.004 µM.

Consider `CC(C)CC(C)N=C1NC(=O)N(c2ccc3[nH]cnc3c2)C1c1ccccc1C(F)(F)F` (centres unmarked) [Compound 298, 1-(1H-Benzoimidazol-5-yl)-4-1,3-dimethyl-butylimino-5-(2-trifluoromethyl-phenyl)-imidazolidin-2-one], for which the 50% inhibitory concentration (IC50) amounted to 6.7 µM.

With `Cc1ccc(C2/C(=N/c3c(Cl)cccc3Cl)NC(=S)N2c2ccc3nc[nH]c3c2)cc1` (centres unmarked) [Compound 237, 1-(3H-Benzoimidazol-5-yl)-4-2,6-dichloro-phenylimino-5-p-tolyl-imidazolidine-2-thione], the IC50 turned out to be 7.6 µM.

For `C/N=C1/NC(=O)N(CCCn2ccnc2)C1C1CCC=CO1` (centres unmarked) [Compound 15, 5-(3,4-Dihydro-2H-pyran-2-yl)-1-(3-imidazol-1-yl-propyl)-4-methylimino-imidazolidin-2-one], the IC50 was determined as 7.6 µM.

With `O=C1N/C(=N\CCC(c2ccccc2)c2ccccc2)C(c2cccc(F)c2F)N1CCCn1ccnc1` (centres unmarked) [Compound 107], the IC50 amounted to 6.7 µM.

On to `Cc1cccc(C2/C(=N/CC(=O)N3Cc4ccccc4C3)NC(=O)N2CCCn2ccnc2)c1O` (centres unmarked) [Compound 12, 4-2-(1,3-Dihydro-isoindol-2-yl)-2-oxo-ethylimino-5-(2-hydroxy-3-methyl-phenyl)-1-(3-imidazol-1-yl-propyl)-imidazolidin-2-one], for which the concentration for half-maximal inhibition (IC50) was determined as 9.6 µM.

Take `Cc1ccc(C2/C(=N/C3CCCCCC3)NC(=S)N2c2ccc3nc[nH]c3c2)c(C)c1` (centres unmarked) [Compound 344, 1-(3H-Benzoimidazol-5-yl)-4-cycloheptylimino-5-(2,4-dimethyl-phenyl)-imidazolidine-2-thione]: the IC50 was 4.9 µM.

Take `O=C1N/C(=N/CCc2c[nH]c3ccccc23)C(c2ccc(Cl)c(F)c2)N1CCCn1ccnc1` (centres unmarked) [Compound 54, 5-(4-Chloro-3-fluoro-phenyl)-1-(3-imidazol-1-yl-propyl)-4-2-(1H-indol-3-yl)-ethylimino-imidazolidin-2-one]: the IC50 is 3.1 µM.

As to `O=C1N/C(=N\c2ccc3c(c2)OCCO3)C(C2CCC=CO2)N1CCCn1ccnc1` (centres unmarked) [Compound 30, 4-2,3-Dihydro-benzo1,4dioxin-6-ylimino-5-(3,4-dihydro-2H-pyran-2-yl)-1-(3-imidazol-1-yl-propyl)-imidazolidin-2-one], the concentration for half-maximal inhibition (IC50) came to 6.7 µM.

Regarding `O=C1N/C(=N\C(c2ccccc2)c2ccccc2)C(c2ccc(O)cc2)N1CCCn1ccnc1` (centres unmarked) [Compound 89, 4-Benzhydrylimino-5-(4-hydroxy-phenyl)-1-(3-imidazol-1-yl-propyl)-imidazolidin-2-one], the half-maximal inhibitory concentration (IC50) was 9.4 µM.

For `O=C(CN=C1NC(=O)N(c2ccc3nc[nH]c3c2)C1c1cc(Br)cc(Br)c1)N1CCSCC1` (centres unmarked) [Compound 179, 1-(3H-Benzoimidazol-5-yl)-5-(3,5-dibromo-phenyl)-4-2-oxo-2-thiomorpholin-4-yl-ethylimino-imidazolidin-2-one], the IC50 came out at 4 µM.

In the case of `COC(=O)C(C)N=C1NC(=S)N(c2ccc3[nH]cnc3c2)C1c1ccccc1` (centres unmarked) [Compound 304, Methyl 2-(1-(1H-benzo[d]imidazol-5-yl)-5-phenyl-2-thioxoimidazolidin-4-ylideneamino)propanoate], the IC50 is 7.6 µM.

With `O=C1N/C(=N\CCC(c2ccccc2)c2ccccc2)C(c2ccccc2Cl)N1CCCn1ccnc1` (centres unmarked) [Compound 110, 5-(2-Chloro-phenyl)-4-3,3-diphenyl-propylimino-1-(3-imidazol-1-yl-propyl)-imidazolidin-2-one], the half-maximal inhibitory concentration (IC50) stood at 6.7 µM.

Take `O=C(C/N=C1/NC(=O)N(CCCn2ccnc2)C1c1cccc(F)c1)N1CCc2ccccc2C1` (centres unmarked) [Compound 77, 4-2-(3,4-Dihydro-1H-isoquinolin-2-yl)-2-oxo-ethylimino-5-(3-fluoro-phenyl)-1-(3-imidazol-1-yl-propyl)-imidazolidin-2-one]: the IC50 came out at 4 µM.

In the case of `O=C1CCCN1CCC/N=C1/NC(=O)N(c2ccc3[nH]cnc3c2)C1c1cc(F)cc(F)c1` (centres unmarked) [Compound 335, 1-(1H-Benzoimidazol-5-yl)-5-(3,5-difluoro-phenyl)-4-3-(2-oxo-pyrrolidin-1-yl)-propylimino-imidazolidin-2-one], the half-inhibitory concentration (IC50) worked out at 1.3 µM.

As to `CC1=CC(C)C(C2/C(=N/C(C)C(C)(C)C)NC(=S)N2c2ccc3nc[nH]c3c2)CC1` (centres unmarked) [Compound 165, 1-(3H-Benzoimidazol-5-yl)-5-(2,4-dimethyl-cyclohex-3-enyl)-4-1,2,2-trimethyl-propylimino-imidazolidine-2-thione], the IC50 worked out at 7.6 µM.

On to `O=C(C/N=C1/NC(=O)N(CCCn2ccnc2)C1c1ccccc1)N1CCc2ccccc2C1` (centres unmarked) [Compound 66, 4-2-(3,4-Dihydro-1H-isoquinolin-2-yl)-2-oxo-ethylimino-1-(3-imidazol-1-yl-propyl)-5-phenyl-imidazolidin-2-one], for which the IC50 turned out to be 4 µM.

In the case of `S=C1N/C(=N/CCCc2ccccc2)C(c2ccc3[nH]ccc3c2)N1c1ccc2[nH]cnc2c1` (centres unmarked) [Compound 284, 1-(1H-Benzoimidazol-5-yl)-5-(1H-indol-5-yl)-4-3-phenyl-propylimino-imidazolidine-2-thione], the IC50 is 1.3 µM.

As to `O=C1N/C(=N/CCc2ccccn2)C(c2c[nH]c3cc(F)ccc23)N1c1ccc2[nH]cnc2c1` (centres unmarked) [Compound 345, 1-(1H-Benzoimidazol-5-yl)-5-(6-fluoro-1H-indol-3-yl)-4-2-pyridin-2-yl-ethylimino-imidazolidin-2-one], the IC50 was determined as 4 µM.

As to `O=C1N/C(=N/CCc2c[nH]c3ccccc23)C(c2ccc(F)cc2)N1CCCn1ccnc1` (centres unmarked) [Compound 63, 5-(4-Fluoro-phenyl)-1-(3-imidazol-1-yl-propyl)-4-2-(1H-indol-3-yl)-ethylimino-imidazolidin-2-one], the 50% inhibitory concentration (IC50) stood at 3.1 µM.

In the case of `O=C1N/C(=N\C2CCCCC2)C(c2cc3c(cc2Br)OCO3)N1c1ccc2nc[nH]c2c1` (centres unmarked) [Compound 196, 1-(3H-Benzoimidazol-5-yl)-5-(6-bromo-benzo1,3-dioxol-5-yl)-4-cyclohexylimino-imidazolidin-2-one], the half-maximal inhibitory concentration (IC50) was 0.004 µM.

On to `O=C1N/C(=N/CCCc2ccccc2)C(c2cc3ccccc3s2)N1c1ccc2[nH]cnc2c1` (centres unmarked) [Compound 172, 5-Benzobthiophen-2-yl-1-(1H-Benzoimidazol-5-yl)-4-3-phenyl-propylimino-imidazolidin-2-one], for which the IC50 is 1.3 µM.

As to `O=C1CCCN1CCC/N=C1\NC(=S)N(c2ccc3[nH]cnc3c2)C1c1ccc(Br)cc1` (centres unmarked) [Compound 147, 1-{3-1-(3H-Benzoimidazol-5-yl)-5-(4-bromo-phenyl)-2-thioxo-imidazolidin-(4Z)-ylideneamino-propyl}-pyrrolidin-2-one], the half-inhibitory concentration (IC50) came out at 5.8 µM.

With `O=C1N/C(=N/CCN2CCOCC2)C(c2cc(Br)cc(Br)c2)N1c1ccc2nc[nH]c2c1` (centres unmarked) [Compound 296, 1-(3H-Benzoimidazol-5-yl)-5-(3,5-dibromo-phenyl)-4-2-morpholin-4-yl-ethylimino-imidazolidin-2-one], the half-maximal inhibitory concentration (IC50) was 4.9 µM.

On to `O=C1N/C(=N\C(c2ccccc2)c2ccccc2)C(C2CCC=CO2)N1CCCn1ccnc1` (centres unmarked) [Compound 82, 4-Benzhydrylimino-5-(3,4-dihydro-2H-pyran-2-yl)-1-(3-imidazol-1-yl-propyl)-imidazolidin-2-one], for which the concentration for half-maximal inhibition (IC50) was 9.4 µM.

For the molecule `O=C1N/C(=N\C2CCCCC2O)C(c2coc3ccccc3c2=O)N1c1ccc2[nH]cnc2c1` (centres unmarked) [Compound 297, 1-(1H-Benzoimidazol-5-yl)-4-2-hydroxy-cyclohexylimino-5-(4-oxo-4H-chromen-3-yl)-imidazolidin-2-one], the half-maximal inhibitory concentration (IC50) was 9.4 µM.

In the case of `O=C(C/N=C1/NC(=O)N(CCCn2ccnc2)C1C1CCC=CO1)N1CCc2ccccc2C1` (centres unmarked) [Compound 67, 4-2-(3,4-Dihydro-1H-isoquinolin-2-yl)-2-oxo-ethylimino-5-(3,4-dihydro-2H-pyran-2-yl)-1-(3-imidazol-1-yl-propyl)-imidazolidin-2-one], the half-inhibitory concentration (IC50) worked out at 4.9 µM.

Turning to `O=C1N/C(=N\C2CCCC2)C(c2ccc(N3CCCC3)cc2)N1c1ccc2[nH]cnc2c1` (centres unmarked) [Compound 129, 1-(1H-Benzoimidazol-5-yl)-4-cyclopentylimino-5-(4-pyrrolidin-1-yl-phenyl)-imidazolidin-2-one], the 50% inhibitory concentration (IC50) came to 0.004 µM.

Consider `O=C1N/C(=N\C2CC2)C(c2ccccc2C(F)(F)F)N1c1ccc2[nH]cnc2c1` (centres unmarked) [Compound 158, 1-(1H-Benzoimidazol-5-yl)-4-cyclopropylimino-5-(2-trifluoromethyl-phenyl)-imidazolidin-2-one], for which the 50% inhibitory concentration (IC50) was determined as 4.9 µM.
